What follows are compounds tested against T1, Axl (h) (Homo sapiens, UniProt P30530) (assay: Axl (h) kinase assay).
T1 construct: purchased Millipore UK Ltd
T1 sequence (P30530 26-894): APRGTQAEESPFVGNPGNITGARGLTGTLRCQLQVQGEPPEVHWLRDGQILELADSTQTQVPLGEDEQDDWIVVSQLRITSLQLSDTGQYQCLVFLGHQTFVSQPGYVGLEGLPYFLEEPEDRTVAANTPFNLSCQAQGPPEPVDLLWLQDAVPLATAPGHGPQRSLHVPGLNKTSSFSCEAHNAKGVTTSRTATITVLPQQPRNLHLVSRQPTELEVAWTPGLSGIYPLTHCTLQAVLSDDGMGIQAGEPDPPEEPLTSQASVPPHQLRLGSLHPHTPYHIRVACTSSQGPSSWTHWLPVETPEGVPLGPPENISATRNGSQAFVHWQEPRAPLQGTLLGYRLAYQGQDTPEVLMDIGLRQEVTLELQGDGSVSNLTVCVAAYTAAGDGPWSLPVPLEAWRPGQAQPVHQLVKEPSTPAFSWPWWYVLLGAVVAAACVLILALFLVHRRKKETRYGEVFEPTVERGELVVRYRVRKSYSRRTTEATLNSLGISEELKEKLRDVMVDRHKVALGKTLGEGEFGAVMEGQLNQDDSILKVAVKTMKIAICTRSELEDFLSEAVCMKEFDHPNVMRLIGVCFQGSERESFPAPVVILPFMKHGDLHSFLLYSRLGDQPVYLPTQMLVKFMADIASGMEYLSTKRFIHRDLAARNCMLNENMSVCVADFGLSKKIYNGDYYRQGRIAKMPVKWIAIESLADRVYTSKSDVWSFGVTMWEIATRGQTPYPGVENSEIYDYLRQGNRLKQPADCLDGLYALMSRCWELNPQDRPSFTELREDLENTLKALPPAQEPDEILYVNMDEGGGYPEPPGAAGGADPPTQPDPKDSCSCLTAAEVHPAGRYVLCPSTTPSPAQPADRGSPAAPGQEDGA
Type: biochemical
Description: The above assay procedure can be used to determine the IC50 for inhibition and/or the inhibition constant, Ki. The IC50 is defined as the concentration of compound required to reduce the enzyme activity by 50% under the condition of the assay. The IC50 value is estimated by preparing a 10 point curve using a 1/2 log dilution series (for example, a typical curve may be prepared using the following compound concentrations: 10 μM, 3 μM, 1 μM, 0.3 μM, 0.1 μM, 0.03 μM, 0.01 μM, 0.003 μM, 0.001 μM and 0 μM).
Axl (h) is incubated with 8 mM MOPS pH 7.0, 0.2 mM EDTA, 250 μM KKSRGDYMTMQIG, 10 mM MgAcetate and [γ-^33P-ATP] (specific activity approx. 500 cpm/pmol, concentration as required). The reaction is initiated by the addition of the MgATP mix. After incubation for 40 minutes at room temperature, the reaction is stopped by the addition of 3% phosphoric acid solution. 10 μL of the reaction is then spotted onto a P30 filtermat and washed three times for 5 minutes in 75 mM phosphoric acid and once in methanol prior to drying and scintillation counting.
The kinase assays described herein were performed at Millipore UK Ltd, Dundee Technology Park, Dundee DD2 1SW, UK.

| IC50 | Structure (SMILES) |
| --- | --- |
| 14 nM | CC(=O)Nc1cc(Oc2ccc(NC(=O)c3c4n(n(-c5ccccc5)c3=O)CCOC4)nc2)ccn1 [Ex. 12, N-(5-((2-acetamidopyridin-4-yl)oxy)pyridin-2-yl)-2-oxo-1-phenyl-2,4,6,7-tetrahydro-1H-pyrazolo[5,1-c][1,4]oxazine-3-carboxamide] |
| 7 nM | O=C(Nc1ccc(Oc2ccnc(NC(=O)C3CC3)c2)cn1)c1c2n(n(-c3ccccc3)c1=O)CCC2 [Ex. 14, N-(5-((2-(cyclopropanecarboxamido)pyridin-4-yl)oxy)pyridin-2-yl)-2-oxo-1-phenyl-2,4,5,6-tetrahydro-1H-pyrrolo[1,2-b]pyrazole-3-carboxamide] |
| 5 nM | O=C(Nc1ccc(Oc2ccnc(NC(=O)C3CC3)c2)cc1)c1c2n(n(-c3ccccc3)c1=O)CCOC2 [Ex. 19, N-(4-((2-(cyclopropanecarboxamido)pyridin-4-yl)oxy)phenyl)-2-oxo-1-phenyl-2,4,6,7-tetrahydro-1H-pyrazolo[5,1-c][1,4]oxazine-3-carboxamide] |
